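Where inhibition never reached the appropriate level, the endpoint shown equals the highest concentration tested. Otherwise, values were interpolated linearly from a five-concentration, 48-hour dose response in 96-well plates. The concentration for 50% growth inhibition is given as GI50. TGI marks complete inhibition of growth.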
Tests used:
Experiment in all cases: DTP human tumour cell line panel, 48 h
[1] = test system: UACC-62 melanoma
[2] = test system: UO-31 renal
[3] = test system: TK-10 renal
[4] = test system: DU-145 prostate
[5] = test system: MDA-MB-231 breast
[6] = test system: MALME-3M melanoma
[7] = test system: OVCAR-5 ovarian
[8] = test system: SN12C renal
[9] = test system: HL-60(TB) leukemia
[10] = test system: A549 NSCLC
[11] = test system: HCC-2998 colon
[12] = test system: MDA-MB-468 breast
[13] = test system: MDA-MB-435
[14] = test system: LOX IMVI melanoma
[15] = test system: SNB-19 CNS
[16] = test system: OVCAR-3 ovarian
[17] = test system: CAKI-1 renal
[18] = test system: HT29 colon
[19] = test system: UACC-257 melanoma
[20] = test system: SF-268 CNS
[21] = test system: SK-MEL-2 melanoma
[22] = test system: HOP-62 NSCLC
[23] = test system: SNB-75 CNS
[24] = test system: SF-295 CNS
[25] = test system: NCI-H460 lung
[26] = test system: KM12 colon
[27] = test system: HCT-116 colon
[28] = test system: SR leukemia
[29] = test system: MOLT-4 leukemia
[30] = test system: IGROV1 ovarian
[31] = test system: NCI-H23 lung
[32] = test system: HS 578T breast
[33] = test system: SK-OV-3 ovarian
[34] = test system: 786-0 renal
[35] = test system: NCI-H226 lung
[36] = test system: MCF7 breast
[37] = test system: CCRF-CEM leukemia
[38] = test system: M14 melanoma
[39] = test system: HCT-15 colon
[40] = test system: SK-MEL-28 melanoma
[41] = test system: OVCAR-4 ovarian
[42] = test system: COLO 205 colon
[43] = test system: BT-549 breast
[44] = test system: SW-620 colon
[45] = test system: RXF 393 renal
[46] = test system: OVCAR-8 ovarian
[47] = test system: K-562 leukemia
[48] = test system: NCI-H522 lung
[49] = test system: SF-539 CNS
[50] = test system: ACHN renal
[51] = test system: A498 renal
[52] = test system: SK-MEL-5 melanoma
[53] = test system: RPMI-8226 leukemia
[54] = test system: T-47D breast

Cn1cc(-c2cc(N)n3nc(-c4c[nH]c5ccc(Br)cc45)cc3n2)c2cc(Br)cnc21
GI50 [1]: 1600 nM | TGI [1]: 3.07 µM | GI50 [2]: 1620 nM | TGI [2]: 3.36 µM | GI50 [3]: 1780 nM | TGI [3]: 3.99 µM | GI50 [4]: 1820 nM | TGI [4]: 3.53 µM | GI50 [5]: 1780 nM | TGI [5]: 3.54 µM | GI50 [6]: 1890 nM | TGI [6]: 3.52 µM | GI50 [7]: 2030 nM | TGI [7]: 4.44 µM | GI50 [8]: 1720 nM | TGI [8]: 3.36 µM | GI50 [9]: 1790 nM | TGI [9]: 4.33 µM | GI50 [10]: 1840 nM | TGI [10]: 3.87 µM | GI50 [11]: 1760 nM | TGI [11]: 3.24 µM | GI50 [12]: 1360 nM | TGI [12]: 2770 nM | GI50 [13]: 1710 nM | TGI [13]: 3.21 µM | GI50 [14]: 1700 nM | TGI [14]: 3.29 µM | GI50 [15]: 2150 nM | TGI [15]: 4.76 µM | GI50 [16]: 1670 nM | TGI [16]: 3.13 µM | GI50 [17]: 1490 nM | TGI [17]: 3.77 µM | GI50 [18]: 1970 nM | TGI [18]: 3.84 µM | GI50 [19]: 2000 nM | TGI [19]: 4.31 µM | GI50 [20]: 2250 nM | TGI [20]: 5.71 µM | GI50 [21]: 1790 nM | TGI [21]: 3.74 µM | GI50 [22]: 1680 nM | TGI [22]: 3.34 µM | GI50 [23]: 1460 nM | TGI [23]: 3.24 µM | GI50 [24]: 1880 nM | TGI [24]: 4.29 µM | GI50 [25]: 1960 nM | TGI [25]: 4.03 µM | GI50 [26]: 1590 nM | TGI [26]: 3.16 µM | GI50 [27]: 1910 nM | TGI [27]: 4.25 µM | GI50 [28]: 1930 nM | TGI [28]: 5.87 µM | GI50 [29]: 2110 nM | TGI [29]: 10.6 µM | GI50 [30]: 1960 nM | TGI [30]: 4.11 µM | GI50 [31]: 1760 nM | TGI [31]: 3.6 µM | GI50 [32]: 2290 nM | TGI [32]: 5.36 µM | GI50 [33]: 2540 nM | TGI [33]: 7.27 µM | GI50 [34]: 1640 nM | TGI [34]: 3.13 µM | GI50 [35]: 2510 nM | TGI [35]: 7.34 µM | GI50 [36]: 1800 nM | TGI [36]: 3.63 µM | GI50 [37]: 1610 nM | TGI [37]: 4.26 µM | GI50 [38]: 1690 nM | TGI [38]: 3.55 µM | GI50 [39]: 1690 nM | TGI [39]: 3.8 µM | GI50 [40]: 1820 nM | TGI [40]: 3.64 µM | GI50 [41]: 1950 nM | TGI [41]: 3.93 µM | GI50 [42]: 1820 nM | TGI [42]: 3.36 µM | GI50 [43]: 2190 nM | TGI [43]: 4.36 µM | GI50 [44]: 1880 nM | TGI [44]: 3.74 µM | GI50 [45]: 1890 nM | TGI [45]: 3.69 µM | GI50 [46]: 2010 nM | TGI [46]: 4.22 µM | GI50 [47]: 1890 nM | TGI [47]: 5.88 µM | GI50 [48]: 1700 nM | TGI [48]: 3.56 µM | GI50 [49]: 1640 nM | TGI [49]: 3.16 µM | GI50 [50]: 1660 nM | TGI [50]: 3.12 µM | GI50 [51]: 1550 nM | TGI [51]: 3.42 µM | GI50 [52]: 2080 nM | TGI [52]: 4.49 µM | GI50 [53]: 2230 nM | TGI [53]: 7.8 µM | GI50 [54]: 1800 nM | TGI [54]: 4.33 µM
